{"source": "paper PMC5218480", "about": "(PLoS ONE, 2017)", "test_system": "MV-4-11 cells", "test": "Gene expression microarray analysis (Affymetrix PrimeView) and GSEA", "format": "cell-based, human", "parameters": "RFU PODN (11730768_x_at) / Fold change /veh PODN (11730768_x_at) / RFU LINC00158 (11744669_a_at) / Fold change /veh LINC00158 (11744669_a_at) / RFU DUSP10 (11751237_a_at) / Fold change /veh DUSP10 (11751237_a_at) / RFU ID3 (11757404_x_at) / Fold change /veh ID3 (11757404_x_at) / RFU PLEKHG5 (11737974_s_at) / Fold change /veh PLEKHG5 (11737974_s_at) / RFU LRRC4B (11730491_at) / Fold change /veh LRRC4B (11730491_at) / RFU GIMAP4 (11747438_a_at) / Fold change /veh GIMAP4 (11747438_a_at) / RFU KRT8 (11758183_x_at) / Fold change /veh KRT8 (11758183_x_at) / RFU CNN1 (11734310_a_at) / Fold change /veh CNN1 (11734310_a_at) / RFU VPS37D (11726825_at) / Fold change /veh VPS37D (11726825_at) / RFU C10orf10 (11716522_x_at) / Fold change /veh C10orf10 (11716522_x_at) / RFU KIR2DL2 /// KIR2DL4 /// KIR2DL5A /// KIR2DL5B /// KIR2DS1 /// KIR2DS2 /// KIR2DS3 /// KIR2DS4 /// KIR3DL3 /// KIR3DL3 /// KIR3DS1 (11738374_at) / Fold change /veh KIR2DL2 /// KIR2DL4 /// KIR2DL5A /// KIR2DL5B /// KIR2DS1 /// KIR2DS2 /// KIR2DS3 /// KIR2DS4 /// KIR3DL3 /// KIR3DL3 /// KIR3DS1 (11738374_at) / RFU C1QL1 (11718748_at) / Fold change /veh C1QL1 (11718748_at) / RFU TMPRSS4 (11747572_a_at) / Fold change /veh TMPRSS4 (11747572_a_at) / RFU HAMP (11756126_x_at) / Fold change /veh HAMP (11756126_x_at) / RFU RNFT2 (11725882_a_at) / Fold change /veh RNFT2 (11725882_a_at) / RFU NR4A2 (11747474_a_at) / Fold change /veh NR4A2 (11747474_a_at) / RFU ABCC12 (11746883_a_at) / Fold change /veh ABCC12 (11746883_a_at) / RFU TMEM136 (11760407_x_at) / Fold change /veh TMEM136 (11760407_x_at) / RFU CLDN22 /// WWC2 (11732394_at) / Fold change /veh CLDN22 /// WWC2 (11732394_at) / RFU HLA-DPB1 (11760878_x_at) / Fold change /veh HLA-DPB1 (11760878_x_at) / RFU SPINT1 (11716480_a_at) / Fold change /veh SPINT1 (11716480_a_at) / RFU GAP43 (11754022_s_at) / Fold change /veh GAP43 (11754022_s_at) / RFU A4GNT (11735810_at) / Fold change /veh A4GNT (11735810_at) / RFU PRB3 (11715151_x_at) / Fold change /veh PRB3 (11715151_x_at) / RFU TUBB4B (11761932_at) / Fold change /veh TUBB4B (11761932_at) / RFU CAPN14 (11732068_a_at) / Fold change /veh CAPN14 (11732068_a_at) / RFU TMCC2 (11721928_a_at) / Fold change /veh TMCC2 (11721928_a_at) / RFU IRGQ (11745062_a_at) / Fold change /veh IRGQ (11745062_a_at) / RFU FAM174B (11720279_a_at) / Fold change /veh FAM174B (11720279_a_at) / RFU TMPRSS4 (11748680_a_at) / Fold change /veh TMPRSS4 (11748680_a_at) / RFU FAM212B (11763350_a_at) / Fold change /veh FAM212B (11763350_a_at) / RFU PLEKHG5 (11743358_a_at) / Fold change /veh PLEKHG5 (11743358_a_at) / RFU ZSCAN30 (11745921_a_at) / Fold change /veh ZSCAN30 (11745921_a_at) / RFU CMKLR1 (11741424_a_at) / Fold change /veh CMKLR1 (11741424_a_at) / RFU LOC101060620 /// MAPK8IP1 (11723275_at) / Fold change /veh LOC101060620 /// MAPK8IP1 (11723275_at) / RFU SPTSSB (11747773_x_at) / Fold change /veh SPTSSB (11747773_x_at) / RFU PRSS12 (11739890_at) / Fold change /veh PRSS12 (11739890_at) / RFU BIN1 (11741810_x_at) / Fold change /veh BIN1 (11741810_x_at) / RFU WNT11 (11732464_a_at) / Fold change /veh WNT11 (11732464_a_at) / RFU C10orf10 (11716521_a_at) / Fold change /veh C10orf10 (11716521_a_at) / RFU C5orf56 (11738089_at) / Fold change /veh C5orf56 (11738089_at) / RFU CYB561 (11721691_x_at) / Fold change /veh CYB561 (11721691_x_at) / RFU ANKRD19P (11752326_a_at) / Fold change /veh ANKRD19P (11752326_a_at) / RFU OR2T12 /// OR2T33 /// OR2T8 (11738714_s_at) / Fold change /veh OR2T12 /// OR2T33 /// OR2T8 (11738714_s_at) / RFU VCAN (11748164_a_at) / Fold change /veh VCAN (11748164_a_at) / RFU JSRP1 (11732532_at) / Fold change /veh JSRP1 (11732532_at) / RFU KRTAP10-11 (11738290_x_at) / Fold change /veh KRTAP10-11 (11738290_x_at) / RFU MYO3A (11730013_a_at) / Fold change /veh MYO3A (11730013_a_at) / RFU EBF3 (11725865_a_at) / Fold change /veh EBF3 (11725865_a_at) / RFU CAMK2N1 (11719241_x_at) / Fold change /veh CAMK2N1 (11719241_x_at) / RFU C5orf56 (11738088_a_at) / Fold change /veh C5orf56 (11738088_a_at) / RFU OLFML3 (11715873_a_at) / Fold change /veh OLFML3 (11715873_a_at) / RFU LOC100653217 /// NTM (11731650_a_at) / Fold change /veh LOC100653217 /// NTM (11731650_a_at) / RFU MAPK11 (11762145_a_at) / Fold change /veh MAPK11 (11762145_a_at) / RFU FIZ1 (11724087_x_at) / Fold change /veh FIZ1 (11724087_x_at) / RFU OASL (11726364_x_at) / Fold change /veh OASL (11726364_x_at) / RFU SOX15 (11748057_x_at) / Fold change /veh SOX15 (11748057_x_at) / RFU CD79A (11719716_a_at) / Fold change /veh CD79A (11719716_a_at) / RFU HIST1H1D (11736915_at) / Fold change /veh HIST1H1D (11736915_at) / RFU CASKIN2 (11723855_a_at) / Fold change /veh CASKIN2 (11723855_a_at) / RFU LOC730098 (11760151_x_at) / Fold change /veh LOC730098 (11760151_x_at) / RFU OR4N2 (11742367_at) / Fold change /veh OR4N2 (11742367_at) / RFU PRRT2 (11749266_a_at) / Fold change /veh PRRT2 (11749266_a_at) / RFU SNX32 (11753110_a_at) / Fold change /veh SNX32 (11753110_a_at) / RFU CDHR5 (11726645_a_at) / Fold change /veh CDHR5 (11726645_a_at) / RFU RCAN1 (11760418_a_at) / Fold change /veh RCAN1 (11760418_a_at) / RFU FAM167A (11723789_a_at) / Fold change /veh FAM167A (11723789_a_at) / RFU FAM26E (11764081_at) / Fold change /veh FAM26E (11764081_at) / RFU ISYNA1 (11749810_s_at) / Fold change /veh ISYNA1 (11749810_s_at) / RFU ACY1 (11761880_at) / Fold change /veh ACY1 (11761880_at) / RFU 11764098_at / Fold change /veh 11764098_at / RFU SAMD14 (11745864_x_at) / Fold change /veh SAMD14 (11745864_x_at) / RFU NPB (11741838_a_at) / Fold change /veh NPB (11741838_a_at) / RFU TMPRSS6 (11731388_a_at) / Fold change /veh TMPRSS6 (11731388_a_at) / RFU KRTAP10-2 (11738614_at) / Fold change /veh KRTAP10-2 (11738614_at) / RFU ARHGAP8 /// PRR5-ARHGAP8 (11727945_x_at) / Fold change /veh ARHGAP8 /// PRR5-ARHGAP8 (11727945_x_at) / RFU KRTAP5-7 /// NADSYN1 (11734609_at) / Fold change /veh KRTAP5-7 /// NADSYN1 (11734609_at) / RFU RASL12 (11751679_a_at) / Fold change /veh RASL12 (11751679_a_at) / RFU CDKN2B (11736163_a_at) / Fold change /veh CDKN2B (11736163_a_at) / RFU PRF1 (11729649_at) / Fold change /veh PRF1 (11729649_at) / RFU, ZNF638 /// ZNF638-IT1 / Fold change vs veh, ZNF638 /// ZNF638-IT1 / RFU, PANK3 / Fold change vs veh, PANK3 / RFU, SH3YL1 / Fold change vs veh, SH3YL1 / RFU, ZEB2 / Fold change vs veh, ZEB2 / RFU, NRIP1 / Fold change vs veh, NRIP1 / RFU, PTTG1IP / Fold change vs veh, PTTG1IP / RFU, CAPN2 / Fold change vs veh, CAPN2 / RFU, MED14 / Fold change vs veh, MED14 / RFU, SNORA58 / Fold change vs veh, SNORA58 / RFU, C1orf63 / Fold change vs veh, C1orf63 / RFU, LRRFIP1 / Fold change vs veh, LRRFIP1 / RFU, NDUFAF7 / Fold change vs veh, NDUFAF7 / RFU, SLC12A2 / Fold change vs veh, SLC12A2 / RFU, IBTK / Fold change vs veh, IBTK / RFU, ESF1 / Fold change vs veh, ESF1 / Fold change vs veh, TMEM50B / RFU, TAOK1 / Fold change vs veh, TAOK1 / RFU, ACBD3 / Fold change vs veh, ACBD3 / RFU, TMA16 / Fold change vs veh, TMA16 / RFU, RWDD3 / Fold change vs veh, RWDD3 / RFU, BCAT1 / Fold change vs veh, BCAT1 / RFU, EDEM3 / Fold change vs veh, EDEM3 / RFU, TMEM33 / Fold change vs veh, TMEM33 / RFU, WDR75 / Fold change vs veh, WDR75 / RFU, AHCTF1 / Fold change vs veh, AHCTF1 / RFU, TFRC / Fold change vs veh, TFRC / RFU, ZDHHC17 / Fold change vs veh, ZDHHC17 / RFU, NOM1 / Fold change vs veh, NOM1 / RFU, ARL8B / Fold change vs veh, ARL8B / RFU, ZBTB11 / Fold change vs veh, ZBTB11 / RFU, TAMM41 / Fold change vs veh, TAMM41 / RFU, KIAA1704 /// LOC100996395 / Fold change vs veh, KIAA1704 /// LOC100996395 / RFU, ING1 / Fold change vs veh, ING1 / RFU, TRMT61B / Fold change vs veh, TRMT61B / RFU, FUBP3 / Fold change vs veh, FUBP3 / RFU, TP53 / Fold change vs veh, TP53 / RFU, TNKS2 / Fold change vs veh, TNKS2 / RFU, ZFP14 / Fold change vs veh, ZFP14 / RFU, ACTR2 / Fold change vs veh, ACTR2 / RFU, PPP3R1 / Fold change vs veh, PPP3R1 / RFU, PIK3R1 / Fold change vs veh, PIK3R1 / RFU, HNRNPA1 / Fold change vs veh, HNRNPA1 / RFU, RNF170 / Fold change vs veh, RNF170 / RFU, ZNF28 / Fold change vs veh, ZNF28 / RFU, RNGTT / Fold change vs veh, RNGTT / RFU, OGT / Fold change vs veh, OGT / RFU, BRD1 / Fold change vs veh, BRD1 / RFU, MARS / Fold change vs veh, MARS / RFU, ZNF655 / Fold change vs veh, ZNF655 / RFU, FAHD1 / Fold change vs veh, FAHD1 / RFU, BDP1 / Fold change vs veh, BDP1 / RFU, LRRCC1 / Fold change vs veh, LRRCC1 / RFU, ARID1A / Fold change vs veh, ARID1A / RFU, ZNF146 / Fold change vs veh, ZNF146 / RFU, ZNF330 / Fold change vs veh, ZNF330 / RFU, GPN3 / Fold change vs veh, GPN3 / RFU, C9orf123 / Fold change vs veh, C9orf123 / RFU, N4BP2L2 / Fold change vs veh, N4BP2L2 / RFU, ARFIP1 / Fold change vs veh, ARFIP1 / RFU, FAM179B / Fold change vs veh, FAM179B / RFU, BCL10 / Fold change vs veh, BCL10 / RFU, UHRF1BP1L / Fold change vs veh, UHRF1BP1L / RFU, BET1 / Fold change vs veh, BET1 / RFU, CNOT2 / Fold change vs veh, CNOT2 / RFU, ZNF268 / Fold change vs veh, ZNF268 / Fold change vs veh, ZNF507 / RFU, DGCR2 / Fold change vs veh, DGCR2 / RFU, WDSUB1 / Fold change vs veh, WDSUB1 / Fold change vs veh, HSP90B1 /// MIR3652 / RFU, ADSS / Fold change vs veh, ADSS / RFU, GK / Fold change vs veh, GK / RFU, ZNF148 / Fold change vs veh, ZNF148 / RFU, TAF9 / Fold change vs veh, TAF9 / RFU, SLC1A5 / Fold change vs veh, SLC1A5 / RFU, SLMO2 / Fold change vs veh, SLMO2 / RFU, ABCC4 / Fold change vs veh, ABCC4 / RFU, LOC101060439 /// RAP1B / Fold change vs veh, LOC101060439 /// RAP1B / RFU, RFX7 / Fold change vs veh, RFX7 / RFU, GTPBP10 / Fold change vs veh, GTPBP10 / RFU, CNEP1R1 / Fold change vs veh, CNEP1R1 / RFU, BIVM-ERCC5 /// ERCC5 / Fold change vs veh, BIVM-ERCC5 /// ERCC5 / RFU, ILF3 / Fold change vs veh, ILF3 / RFU 11762660_at / Fold change /veh 11762660_at / RFU VCAN (11757783_s_at) / Fold change /veh VCAN (11757783_s_at) / RFU DDX43 (11728927_at) / Fold change /veh DDX43 (11728927_at) / RFU KRT8 (11758188_x_at) / Fold change /veh KRT8 (11758188_x_at) / RFU NKD1 (11759106_at) / Fold change /veh NKD1 (11759106_at) / RFU SRD5A1 (11742802_a_at) / Fold change /veh SRD5A1 (11742802_a_at) / RFU TPSAB1 /// TPSB2 (11721975_s_at) / Fold change /veh TPSAB1 /// TPSB2 (11721975_s_at) / RFU GSTM3 (11746129_a_at) / Fold change /veh GSTM3 (11746129_a_at) / RFU IL23R (11737362_x_at) / Fold change /veh IL23R (11737362_x_at) / RFU TMEM51 (11727254_a_at) / Fold change /veh TMEM51 (11727254_a_at) / RFU PIWIL2 (11732686_x_at) / Fold change /veh PIWIL2 (11732686_x_at) / RFU ORM1 (11744905_x_at) / Fold change /veh ORM1 (11744905_x_at) / RFU CCDC152 (11743942_at) / Fold change /veh CCDC152 (11743942_at) / RFU ECM1 (11717891_a_at) / Fold change /veh ECM1 (11717891_a_at) / RFU IL23R (11748794_a_at) / Fold change /veh IL23R (11748794_a_at) / RFU TNFAIP8L3 (11732012_x_at) / Fold change /veh TNFAIP8L3 (11732012_x_at) / RFU MBOAT4 (11741988_at) / Fold change /veh MBOAT4 (11741988_at) / RFU 11764193_at / Fold change /veh 11764193_at / RFU TMEM53 (11763286_at) / Fold change /veh TMEM53 (11763286_at) / RFU MAGEB2 (11727129_at) / Fold change /veh MAGEB2 (11727129_at) / RFU TMEM200A (11744735_a_at) / Fold change /veh TMEM200A (11744735_a_at) / RFU CCDC152 (11751479_a_at) / Fold change /veh CCDC152 (11751479_a_at) / RFU FAM211A (11726209_a_at) / Fold change /veh FAM211A (11726209_a_at) / RFU RGS16 (11746705_a_at) / Fold change /veh RGS16 (11746705_a_at) / RFU VCAN (11755009_s_at) / Fold change /veh VCAN (11755009_s_at) / RFU RHOB (11743442_s_at) / Fold change /veh RHOB (11743442_s_at) / RFU RGS16 (11720943_a_at) / Fold change /veh RGS16 (11720943_a_at) / RFU RGS16 (11720944_at) / Fold change /veh RGS16 (11720944_at) / RFU, VPS4B / Fold change vs veh, VPS4B / RFU, CREB1 / Fold change vs veh, CREB1 / RFU, DNAJC13 / Fold change vs veh, DNAJC13 / RFU, GNAQ / Fold change vs veh, GNAQ / RFU, CDK5R1 / Fold change vs veh, CDK5R1 / RFU, ZRANB3 / Fold change vs veh, ZRANB3 / RFU, CUL4A / Fold change vs veh, CUL4A / RFU, CCNY / Fold change vs veh, CCNY / RFU, UFL1 / Fold change vs veh, UFL1 / RFU, COG3 / Fold change vs veh, COG3 / RFU, DIAPH2 / Fold change vs veh, DIAPH2 / RFU, SKA2 / Fold change vs veh, SKA2 / RFU, AFF3 / Fold change vs veh, AFF3 / RFU, LMF1 / Fold change vs veh, LMF1 / RFU, IPO11 / Fold change vs veh, IPO11 / RFU, DFFB / Fold change vs veh, DFFB / RFU, FOXP1 / Fold change vs veh, FOXP1 / RFU, CARD8 / Fold change vs veh, CARD8 / RFU, STRN3 / Fold change vs veh, STRN3 / RFU, ADK / Fold change vs veh, ADK / RFU, RASSF2 / Fold change vs veh, RASSF2 / RFU, WIPF1 / Fold change vs veh, WIPF1 / RFU, LARP1B / Fold change vs veh, LARP1B / RFU, RASA1 / Fold change vs veh, RASA1 / RFU, RB1 / Fold change vs veh, RB1 / RFU, PPFIA1 / Fold change vs veh, PPFIA1 / RFU, MAT2A / Fold change vs veh, MAT2A / RFU, CCT5 / Fold change vs veh, CCT5 / RFU, WDR92 / Fold change vs veh, WDR92 / RFU, CUX1 / Fold change vs veh, CUX1 / RFU, TTC7A / Fold change vs veh, TTC7A / RFU, TMEM135 / Fold change vs veh, TMEM135 / RFU, DEPTOR / Fold change vs veh, DEPTOR / RFU, CPM / Fold change vs veh, CPM / RFU, DNAJB6 / Fold change vs veh, DNAJB6 / RFU, CACNA2D3 / Fold change vs veh, CACNA2D3 / RFU, DTX4 / Fold change vs veh, DTX4 / RFU, TFCP2 / Fold change vs veh, TFCP2 / RFU, GMCL1 /// GMCL1P1 / Fold change vs veh, GMCL1 /// GMCL1P1 / RFU, AEBP2 / Fold change vs veh, AEBP2 / RFU, SNHG1 /// SNORD22 /// SNORD25 /// SNORD26 /// SNORD27 /// SNORD28 /// SNORD29 /// SNORD31 / Fold change vs veh, SNHG1 /// SNORD22 /// SNORD25 /// SNORD26 /// SNORD27 /// SNORD28 /// SNORD29 /// SNORD31 / Fold change (Aza/veh), C12orf56 (ProbeSet 11735607_a_at) / Fold change (ACY-1035/veh), C12orf56 (ProbeSet 11735607_a_at) / Fold change (Aza/veh), FGFR1OP (ProbeSet 11751329_s_at) / Fold change (ACY-1035/veh), FGFR1OP (ProbeSet 11751329_s_at) / Fold change (Aza/veh), VPS36 (ProbeSet 11739960_a_at) / Fold change (ACY-1035/veh), VPS36 (ProbeSet 11739960_a_at) / RFU SYPL1 (11715823_x_at) / Fold change /veh SYPL1 (11715823_x_at) / RFU IGFBP7 (11715501_s_at) / Fold change /veh IGFBP7 (11715501_s_at) / RFU REEP3 (11722064_at) / Fold change /veh REEP3 (11722064_at) / RFU IGLL1 (11728026_x_at) / Fold change /veh IGLL1 (11728026_x_at): dose or concentration left out as unconfirmed", "conditions": "ProbeSet 11743567_s_at; LIST B", "data": [{"compound": "Nc1ncn([C@@H]2O[C@H](CO)[C@@H](O)[C@H]2O)c(=O)n1", "note": "[azacitidine]", "values": [{"measurement": "RFU, ACBD3", "result": 255.44, "unit": "RFU"}]}]}
